The record followed here is patent publication US9783527B2, “Indazole ureas and method of use” (AbbVie Inc., priority 2014, dated 2017).

The test system of assay [1] is spinal nerve ligation-induced neuropathic pain in rats. Kind of assay: Rat spinal nerve ligation (SNL) model of neuropathic pain, von Frey paw withdrawal threshold. The assay is classed as in vivo. Conditions: SNL dose 100 mg/kg; male Sprague Dawley rats, mechanical sensitivity (von Frey). From the text:
Rat Spinal Nerve Ligation (SNL) Model of Neuropathic Pain.
A model of spinal nerve ligation-induced (SNL model) neuropathic pain as originally described by Kim and Chung (Kim, S. H. and J. M. Chung, 1992, Pain 50, 355) was used to test a compound of the present application. The male Sprague Dawley rats (Charles River Laboratories, Wilmington, Mass.), weighing 150-175 g at the time of surgery, were placed under isoflurane anesthesia and a 1.5 cm incision was made dorsal to the lumbosacral plexus. The paraspinal muscles (left side) were separated from the spinous processes, the left L5 and L6 spinal nerves isolated, and tightly ligated with 5-0 silk suture distal to the dorsal root ganglion. Care was taken to avoid ligating the L4 spinal nerve. Following spinal nerve ligation, a minimum of 7 days of recovery and no more than 3 weeks was allowed prior to the behavioral testing (mechanical sensitivity). Only rats with threshold scores ≦4.5 g were considered allodynic and utilized in pharmacological experiments.
Mechanical sensitivity was measured using calibrated von Frey filaments (Stoelting, Wood Dale, Ill.). Paw withdrawal threshold (PWT) was determined by using the Dixon's up-down method (Dixon, W. J., 1980, Ann. Rev. Pharmacol. Toxicol., 20, 441). Rats were placed into inverted individual plastic containers (20×12.5×20 cm) on top of a suspended wire mesh with a 1 cm^2 grid to provide access to the ventral side of the hind paws, and acclimated to the test chambers for 20 minutes. The von Frey filaments were presented perpendicularly to the plantar surface of the selected hind paw, and then held in this position for approximately 8 seconds with enough force to cause a slight bend in the filament. Positive responses included an abrupt withdrawal of the hind paw from the stimulus, or flinching behavior immediately following removal of the stimulus. A 50% withdrawal threshold was determined using an up-down procedure (Dixon, 1980). A percent maximal possible effect (% MPE) of testing compound was calculated according to the formula: (Log [compound-treated threshold]−Log [vehicle-treated threshold])/(Log [maximum threshold]−Log [vehicle-treated threshold])×100%, where the maximum threshold was equal to 15 g.
The animals were housed in Association for Assessment and Accreditation of Laboratory Animal Care (AAALAC) approved facilities at AbbVie Inc. in a temperature-regulated environment under a controlled 12-hour light-dark cycle, with lights on at 6:00 a.m. Food and water were available ad libitum at all times except during testing. All testing was done following procedures outlined in protocols approved by AbbVie Inc.s' Institutional Animal Care and Use Committee.

The test system of assay [2] is MIA-induced osteoarthritic pain in rats. Kind of assay: Osteoarthritic (OA) pain induced by sodium monoiodoacetate (MIA), hind limb grip force. The assay is classed as in vivo, rat. The conditions noted are these: male Sprague Dawley rats, grip force 20 days after MIA injection.

Each structure is given as a SMILES string.

With `C[C@H]1CCCN1C(=O)CN1CCN(c2cccc3c2cnn3-c2ccccc2F)C1=O` [Example 15, 1-[1-(2-fluorophenyl)-1H-indazol-4-yl]-3-{2-[(2S)-2-methylpyrrolidin-1-yl]-2-oxoethyl}imidazolidin-2-one], the “SNL MPE (%)” value in assay [1] worked out at 74%. Besides, in assay [2] (OA dose 30 mg/kg), the “OA MPE (%)” value came to 68%.
Consider `Cc1noc(C(C)N2CCN(c3cccc4c3cnn4-c3ccccc3F)C2=O)n1` (racemic) [Example 46, 1-[1-(2-fluorophenyl)-1H-indazol-4-yl]-3-[1-(3-methyl-1,2,4-oxadiazol-5-yl)ethyl]imidazolidin-2-one], for which the “SNL MPE (%)” value in assay [1] is reported as 59%. Besides, the “OA MPE (%)” value in assay [2] (OA dose 30 mg/kg) worked out at 69%.
Turning to `Cc1noc(C)c1CN1CCN(c2cccc3c2cnn3-c2ccccc2F)C1=O` [Example 27, 1-[(3,5-dimethyl-1,2-oxazol-4-yl)methyl]-3-[1-(2-fluorophenyl)-1H-indazol-4-yl]imidazolidin-2-one], the “SNL MPE (%)” value in assay [1] worked out at 63%. The “OA MPE (%)” value in assay [2] (OA dose 10 mg/kg) turned out to be 57%.
`O=C(CN1CCN(c2cccc3c2cnn3-c2ccccc2F)C1=O)N[C@@H]1CCOC1` [Example 55, 2-{3-[1-(2-fluorophenyl)-1H-indazol-4-yl]-2-oxoimidazolidin-1-yl}-N-[(3R)-tetrahydrofuran-3-yl]acetamide]: in assay [1], the “SNL MPE (%)” value came out at 91%. The “OA MPE (%)” value in assay [2] (OA dose 30 mg/kg) is given as 66%.
